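Results reflect a 48-hour exposure of cells in 96-well plates to compound at five concentrations. TGI denotes the concentration required for complete inhibition of growth.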
Columns and labels:
Test in all cases: NCI tumour cell line growth inhibition, 48 h
[1] = system: K-562 leukemia
[2] = system: BT-549 breast
[3] = system: COLO 205 colon
[4] = system: MALME-3M melanoma
[5] = system: NCI/ADR-RES ovarian
[6] = system: HOP-62 NSCLC
[7] = system: SK-OV-3 ovarian
[8] = system: T-47D breast
[9] = system: RXF 393 renal
[10] = system: NCI-H23 lung
[11] = system: UACC-257 melanoma
[12] = system: UO-31 renal
[13] = system: CAKI-1 renal
[14] = system: LOX IMVI melanoma
[15] = system: A498 renal
[16] = system: HCT-116 colon
[17] = system: NCI-H226 lung
[18] = system: SF-295 CNS
[19] = system: SNB-19 CNS
[20] = system: TK-10 renal
[21] = system: HCT-15 colon
[22] = system: CCRF-CEM leukemia
[23] = system: RPMI-8226 leukemia
[24] = system: SNB-75 CNS
[25] = system: SK-MEL-2 melanoma
[26] = system: HCC-2998 colon
[27] = system: MDA-MB-435
[28] = system: SF-268 CNS
[29] = system: SW-620 colon
[30] = system: HL-60(TB) leukemia
[31] = system: UACC-62 melanoma
[32] = system: SK-MEL-5 melanoma
[33] = system: M14 melanoma
[34] = system: NCI-H522 lung
[35] = system: A549 NSCLC
[36] = system: OVCAR-3 ovarian
[37] = system: DU-145 prostate
[38] = system: IGROV1 ovarian
[39] = system: HT29 colon
[40] = system: ACHN renal
[41] = system: KM12 colon
[42] = system: OVCAR-5 ovarian
[43] = system: 786-0 renal
[44] = system: OVCAR-8 ovarian
[45] = system: EKVX NSCLC
[46] = system: SR leukemia
[47] = system: MDA-MB-231 breast
[48] = system: SK-MEL-28 melanoma
[49] = system: HOP-92 NSCLC
[50] = system: HS 578T breast
[51] = system: OVCAR-4 ovarian
[52] = system: MOLT-4 leukemia
[53] = system: NCI-H460 lung
[54] = system: U251 CNS
[55] = system: PC-3 prostate
[56] = system: MCF7 breast
[57] = system: SN12C renal
[58] = system: SF-539 CNS

Measured: TGI

C#CCNC(CCCN=C(N)N)C(=O)O (configuration not stated)
> 100 µM: [1] | [2] | [3] | [4] | [5] | [6] | [7] | [8] | [9] | [10] | [11] | [12] | [13] | [14] | [15] | [16] | [17] | [18] | [19] | [20] | [21] | [22] | [23] | [24] | [25] | [26] | [27] | [28] | [29] | [30] | [31] | [32] | [33] | [34] | [35] | [36] | [37] | [38] | [39] | [40] | [41] | [42] | [43] | [44] | [45] | [46] | [47] | [48] | [49] | [50] | [51] | [52] | [53] | [54] | [55]

O=C1NCC2(CCN(CC3COc4ccccc4O3)CC2)N1c1ccccc1 (configuration not stated)
> 100 µM: [1] | [3] | [4] | [5] | [6] | [7] | [8] | [9] | [10] | [11] | [12] | [13] | [14] | [15] | [16] | [17] | [18] | [56] | [19] | [20] | [21] | [22] | [23] | [24] | [25] | [26] | [27] | [28] | [29] | [30] | [31] | [32] | [33] | [57] | [34] | [35] | [36] | [37] | [38] | [39] | [40] | [41] | [58] | [42] | [43] | [44] | [45] | [46] | [47] | [48] | [50] | [51] | [52] | [53] | [54] | [55]

COc1ccccc1NC(=S)Nc1ccccn1
> 100 µM: [1] | [2] | [3] | [4] | [5] | [6] | [7] | [9] | [11] | [12] | [13] | [14] | [15] | [16] | [17] | [18] | [56] | [19] | [20] | [21] | [22] | [23] | [24] | [25] | [27] | [28] | [29] | [30] | [31] | [32] | [33] | [34] | [35] | [36] | [38] | [39] | [41] | [58] | [42] | [43] | [44] | [45] | [46] | [47] | [48] | [50] | [51] | [52] | [53] | [54] | [55]
